The values below come from patent US11781984B2, “Fluorescent method to quantify copper or platinum based on catalysis” (University of Pittsburgh—Of the Commonwealth System of …, priority 2018, dated 2023).

Series [1] can be described thus: Reactivity of platinum drugs after pre-incubation with LiCl or NaCl. The following applies: 10 μM drug, 50 mM LiCl or NaCl, 20 μM APE, 400 μM TFPP, 25° C., 100 min. As to the method:
We pre-incubated the drugs with either LiCl or NaCl before adding APE and TFPP.0 or 100 μM cisplatin, carboplatin, or oxaliplatin in DMSO (100 μL) were added to centrifuge tubes. To these tubes, 0 or 1 M LiCl or NaCl in water (100 μL) was added. The solutions were then allowed to incubate at room temperature for 4 h. The working solution was made by the addition of 1.2 M phosphate pH 7.8 buffer (8.86 mL), DMSO (721 μL), 800 μM APE in DMSO (278 μL), and 20 mM TFPP in 250 ppm BHT in DMSO (111 μL). The working solution (180 μL) was then transferred to the wells of a black 96-well plate. The platinum drugs (20 μL) were then transferred to the wells and the fluorescence was measured every 5 min for 100 min.

Series [2] in a line: Reactivity of strongly-ligated platinum drugs with APE and TFPP. The following applies: 10 μM drug, 45° C., 1 h. As to the method: We incubated carboplatin and oxaliplatin with APE and TFPP. […] Carboplatin and oxaliplatin were dissolved in DMSO. The solutions were diluted to a concentration of 100 μM in DMSO. 100 μM platinum drugs in DMSO or water (20 μL) were transferred to the wells of a black 96-well plate. The working solution was prepared by the addition of 1.2 M phosphate pH 7.8 buffer (17.60 mL), DMSO (1.43 mL), 800 μM APE in DMSO (550 μL), and 40 mM TFPP in 250 ppm BHT in DMSO (220 μL). The working solution (180 μL) was then transferred to the wells and the initial fluorescence was measured. The plate was then covered and allowed to incubate in a 45° C. oven for 1 h before the fluorescence was measured again.

A short description of series [3]: Detection of platinum in different oxidation states (APE/TFPP). The conditions noted are these: APE and TFPP, 25° C. How it is done: To determine whether our method depends on the oxidation state of platinum, we incubated the solution of APE and TFPP with a platinum(II) standard, K2PtCl4, K2PtCl6, or cisplatin for 10 min. Cisplatin (6.1 mg; 20 μmol) was dissolved in DMSO and diluted to a concentration of 10 μM. K2PtCl4 (5.6 mg; 13 μmol) and K2PtCl6 (6.8 mg; 14 μmol) were dissolved in water to a concentration of 10 μM. The Pt standard was diluted with ultrapure water to a concentration of 10 μM. The working solution was prepared by adding 1.2 M pH 7 phosphate buffer (8.86 mL), 800 μM APE in DMSO (278 μL), 20 mM TFPP and 250 ppm BHT in DMSO (111 μL), and DMSO (721 μL) in a 15-mL conical tube. The working solution (180 μL) and the Pt solutions (20 μL) were transferred in this order to black round-bottom 96-well plates. The reaction mixture was incubated at 25° C. for 1 h before the fluorescence was measured and reported. Average values and standard deviations are shown in FIG. 23 and “no Pt” is normalized to 1.

Series [4] can be described thus: Depropargylation of PPE with various metals and ligands (combinatorial screen). The conditions noted are these: Cu^+ and Cu^2+ in the presence of ligand, 1.2 M pH 7.0 phosphate buffer/DMSO. As to the method: All fluorescence measurements were obtained using a Modulus II Microplate Multimode Reader. Fluorescence was measured after exciting samples with 490 nm light and emission was measured between 510-570 nm. All fluorescence measurements were obtained at room temperature. Metals and ligands were combinatorially screened in the presence of Propargyl Pittsburgh Green ether (PPE) to determine which metals and ligands facilitated the depropargylation reaction. Solid AgNO3 and Sr(NO3)2 were dissolved in 5% HNO3 (TraceMetal Grade) to a final concentration of 10 mM. AuCl3, CdCl2, CeCl3, COCl2, CuCl, CuCl2, […]7, FeSO4, FeCl3, HgCl2, MgCl2, KMnO4 NiCl2, Pb(OAc)4, Rh(OAc)2, RhCl3, RuCl3, and ZnCl2 were dissolved in 3% HCl (TraceMetal Grade) to a final concentration of 10 mM. Wilkinson's catalyst, as a source of Rh(I), was dissolved in DMSO to a final concentration of 5 mM. RuCl2(p-cymene) dimer was dissolved in DMSO to a final concentration of 5 mM (10 mM with respect to the monomer). Standard solutions of 1000 ppm Pt^2+ in 3% HCl and 1000 ppm Pd^2+ in 5% HNO3 were used. […] A mixture containing 1.2 M pH 7.0 phosphate buffer (177.2 mL), DMSO (19.42 mL), and 8.0 mM PPE (556 μL) was separated into 37 aliquots. […] These solutions containing the probe and ligand (180 μL), termed working solutions, were transferred to a black 96-well plate. The metal solutions were diluted to 10 μM using ultrapure water as the diluent. […] To analyze the data, each working solution was normalized, with the no metal sample normalized to 1.

The nature of series [5]: Deallylation of APE with various metals and ligands (combinatorial screen). The following applies: for facilitation of the deallylation of APE: ligand screen with APE. How it is done: In separate vials, 20-30 mg of each ligand was dissolved in DMSO containing 250 ppm butylated hydroxyl toluene (BHT) to a final concentration of 20 mM ligand. Working solutions containing the ligands were prepared by mixing 1.23 M pH 7 phosphate buffer (177.2 mL), DMSO (19.424 mL), and 8.0 mM APE in DMSO (556 μL). Aliquots of this mixture (4.944 mL) were placed into 15 mL conical tubes and 20 mM ligands and 250 ppm BHT in DMSO (55.5 μL) were added. […] Metals used in the experiments included AgNO3, AuCl3, CdCl2.2.5H2O, CeCsl3.3H2O, CoCl2.6H2O, […]7, CuCl, CuCl2.2H2O, FeSO4, FeCl3, HgCl2, MgCl2.6H2O, K2MnO4, NiCl2, Pb(OAc)2, RhCl(PPh3)3, Rh(Oac)2 dimer, […] (45.5% Rh), dichloro(p-cymene)ruthenium(II), RuCl3, Sr(NO3)2, and ZnCl2. In separate vials, 10 mM metal solutions were prepared by mixing 5-20 mg of the listed metals with dilute acid; all metals were dissolved in 3% HCl (TraceMetal Grade), with the exception of AgNO3, Sr(NO3)3, RhCl(PPh3)3, and dichloro(p-cymene)ruthenium(II). AgNO3 and Sr(NO3)3 were dissolved in 5% HNO3 (TraceMetal Grade); RhCl(PPh3)3 and dichloro(p-cymene)ruthenium(II) were dissolved in DMSO and the working solutions were adjusted to account for the solvent. The metal solutions were then diluted to 100 μM in 3% HCl or 5% HNO3 (TraceMetal Grade) or DMSO. […] For Pd, the 9.4 mM standard (21 μL) was added to 5% HNO3 (1.98 mL, TraceMetal Grade). For Pt, the 5.1 mM standard (39 μL) was added to 3% HCl (1.96 mL, TraceMetal Grade). To perform the assay, 10 μM metal solutions (20 μL) were added to the prepared working solutions (180 μL). The fluorescence was measured immediately and again after allowing the reaction to proceed for 1 h and 2 h at 25° C.

Series [6] can be described thus: Distribution of copper between water and CHCl3 in the presence of DMAPPP. The conditions noted are these: pH 7 buffer / CHCl3 biphasic system, DMAPPP present vs absent. It is filed as physicochemical. As to the method:
We questioned whether copper ions would be excreted from cells when bound to DMAPPP. As a model system, CuSO4 was suspended in a biphasic system (pH 7 buffer and CHCl3) in the presence or absence of DMAPPP. Three suspensions were prepared from these: 10 mM DMAPPP in CHCl3 (1.0 mL) and 5 mM CuSO4 in 1 mM phosphate pH 7.0 buffer (1.0 mL), CHCl3 (1.0 mL) and 5 mM CuSO4 in 1 mM phosphate pH 7.0 buffer (1.0 mL), and 10 mM DMAPPP in CHCl3 (1.0 mL) and 1 mM phosphate pH 7.0 buffer (1.0 mL). The suspensions were vortexed to ensure proper partitioning of the CuSO4 and DMAPPP. Aliquots of the aqueous and organic layers of each suspension (100 μL each) were then taken and evaporated. The residue following evaporation was resuspended in HBSS (100 μL).
The working solution was prepared by the addition of 50 mM pH 8.5 borate buffer (2.96 mL), EtOH (500 μL), 800 μM PPE in EtOH (100 μL), and 10 mM DMAPPP in DMSO (40 μL). The working solution (180 μL) was transferred to the wells of a black 96-well plate. The resuspended samples (20 μL) were then added to the wells and the fluorescence was measured.

Series [7] is described as follows: Selectivity of optimized APE/TFPP method for platinum over palladium. The following applies: optimized salts, pH and TFPP concentration; 10 μM metals, 20 μM APE, 200 μM TFPP, pH 7.8. How it is done:
FIG. 21: Relative reactivities of metals (10 μM) to APE with TFPP. 20 μM APE, 200 μM TFPP, pH 7.8, 25° C., 10 min, n=3.
Increased temperatures accelerated the deallylation, opening an avenue for even lower detection limits if necessary.

Where [8] appears, read: Pt^2+ and APE in the presence of ligand.

Counter-ions that a name gives are not always drawn.

Take `N.N.O=C([O-])C1(C(=O)[O-])CCC1.[Pt+2]` [carboplatin]: in series [1], the “effect of pre-incubation with LiCl or NaCl on detection” value (shortened to “effect of pre-incubation”) was “increased fluorescence”. The “reaction with APE and TFPP compared to no platinum” value in series [2] is “little reaction”.
On to `N.N.[Cl][Pt][Cl]` [cisplatin], for which the “reactivity of platinum species (fluorescence signal)” value in series [3] is listed as “exhibited reactivity, although it was lower than the inorganic species”. The “effect of pre-incubation” value in series [1] is “did not improve the detection”.
For the compound `O=S(=O)([O-])c1cccc(P(c2ccccc2)c2ccccc2)c1.[Na+]` [Compound 2, 3-(diphenylphosphino)bezenesulfonic acid sodium salt], the “fluorescence signals (depropargylation of PPE)” value (“fluorescence signals” below) in series [4] is “significantly increased the fluorescence signals”.
As for `FC(F)(F)c1ccc(P(c2ccc(C(F)(F)F)cc2)c2ccc(C(F)(F)F)cc2)cc1` [Compound 19, tris(4-trifluoromethylphenyl)phosphine], the “facilitation of the deallylation of APE” value in series [5] is on record as “did not facilitate the deallylation”.
Turning to `CN(C)c1ccc(P(c2ccccc2)c2ccccc2)cc1` [Compound 9, 4-(dimethylamino)phenyl-diphenylphosphine], the “fluorescence signals” value in series [4] is “greatly increased the fluorescence signals”. Further, the “copper concentration in the organic phase” value in series [6] is “did not increase”.
For `Fc1ccc(P(c2ccc(F)cc2)c2ccc(F)cc2)cc1` [Compound 13, tris(4-fluorophenyl)phosphine], the “rate relative to previously reported Pt-Ph3P catalysis” value in series [5] (200 μM TFPP) was 4 times. Besides, in series [5] (setting [8]), the “fluorescence signal relative to background signal” value was 40 fold and the “fluorescence signal relative to the corresponding signal from Pd^2+” value is 10 fold. Besides, the “facilitation of the deallylation of APE” value in series [5] is reported as “facilitated the deallylation”. Further, the “selectivity for platinum over palladium” value in series [7] came out at 14 times.
Consider `O=S(=O)(O)c1cccc(P(c2cc(C(F)(F)F)cc(C(F)(F)F)c2)c2cccc(S(=O)(=O)O)c2)c1` [Compound 12, bis(3-sulfonatophenyl)(3,5-di-trifluoromethylphenyl)phosphine disodium salt], for which the “facilitation of the deallylation of APE” value in series [5] is “facilitated the deallylation”.
Take `COc1ccc(P(c2ccc(OC)cc2)c2ccc(OC)cc2)cc1` [Compound 15, tris(4-methoxyphenyl)phosphine]: in series [4], the “fluorescence signals” value is on record as “significantly increased the fluorescence signals”. Further, the “facilitation of the deallylation of APE” value in series [5] is given as “did not facilitate the deallylation”.
In the same order, the values of `Cc1ccc(P(c2ccc(C)cc2)c2ccc(C)cc2)cc1` [Compound 18, tri-p-tolylphosphine] are “significantly increased the fluorescence signals” and “facilitated the deallylation”.
Consider `O=C1[O][Pt]2([NH][C@@H]3CCCC[C@H]3[NH]2)[O]C1=O` [oxaliplatin], for which, in series [1], the “effect of pre-incubation” value was “did not improve the detection”. For the same compound, the “reaction with APE and TFPP compared to no platinum” value in series [2] is recorded as “little reaction”.
With `c1ccc(P(c2ccccc2)c2ccccc2)cc1` [Compound 34, triphenylphosphine], in series [4], the “fluorescence signals” value is “significantly increased the fluorescence signals”.
